The text below walks through data of patent US20060142247A1, “Tricyclic heterocycles” (priority 2004, published 2006).

The test system of the test is HCT 116 cells. In words: Viability assay HCT 116 cells (CellTiter-Glo). Type of test: cell-based. Conditions: Homo sapiens, HCT-116, 120 h, HCT 116 human colon carcinoma cells, 5 days incubation, CellTiter-Glo luminescence. The essentials:
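Human colon carcinoma cells seeded at 1000/well in RPMI 1640 with GlutaMAX, FCS and Pen/Strep, incubated 24 h at 37 °C, then treated with 10 concentrations (30 μM to 0.0015 μM, 1:3). After 5 days, viability read by CellTiter-Glo ATP luminescence.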
(In general: In ATP-based viability assays light output follows the ATP content of the culture.)

As a reminder, the IC50 is the point on the concentration scale where inhibition reaches its midpoint. A lower IC50 goes with greater potency.

`CC(C)N1C(=O)C(C)(C)c2cc3nc(-c4n[nH]c5ccccc45)[nH]c3cc21` [Example 6, 2-(1H-indazol-3-yl)-5-isopropyl-7,7-dimethyl-5,7-dihydro-3H-imidazo[4,5-f]indol-6-one] had an IC50 of 100 to 1000 nM. For `CC1(C)C(=O)N(CCO[Si](C)(C)C(C)(C)C)c2cc3[nH]c(-c4n[nH]c5ccccc45)nc3cc21` [Example 28, 5-[2-(tert-Butyl-dimethyl-silanyloxy)-ethyl]-2-(1H-indazol-3-yl)-7,7-dimethyl-5,7-dihydro-3H-imidazo[4,5-f]indol-6-one] the value was 100 to 1000 nM; for `O=C1Nc2cc3nc(-c4n[nH]c5ccccc45)[nH]c3cc2C12CCCC2` [Example 9, 2-(1H-indazol-3-yl)-spiro[7,7-cyclopentan-5,7-dihydro-3H-imidazo[4,5-f]indol]-6-one], 100 to 1000 nM.

The compound `CC1C(=O)Nc2cc3[nH]c(-c4n[nH]c5ccccc45)nc3cc21` (stereo not drawn) [Example 11, 2-(1H-Indazol-3-yl)-7-methyl-5,7-dihydro-3H-imidazo[4,5-f]indol-6-one] came in with an IC50 of 100 to 1000 nM. For `C=CCN1C(=O)C(C)(C)c2cc3nc(-c4n[nH]c5ccccc45)[nH]c3cc21` [Example 2, 5-Allyl-2-(1H-indazol-3-yl)-7,7-dimethyl-5,7-dihydro-3H-imidazo[4,5-f]indol-6-one] the value was 180 nM; for `CC1(C)C(=O)N(Cc2ccc(S(C)(=O)=O)cc2)c2cc3[nH]c(-c4n[nH]c5ccccc45)nc3cc21` [Example 27, 2-(1H-Indazol-3-yl)-5-(4-methanesulfonyl-benzyl)-7,7-dimethyl-5,7-dihydro-3H-imidazol[4,5-f]indol-6-one], 100 to 1000 nM.

Consider `C=CCCN1C(=O)C(C)(C)c2cc3nc(-c4n[nH]c5ccccc45)[nH]c3cc21` [Example 15, 5-But-3-enyl-2-(1H-indazol-3-yl)-7,7-dimethyl-5,7-dihydro-3H-imidazo[4,5-f]indol-6-one], for which the half-inhibitory concentration (IC50) fell in the range of 100 to 1000 nM.

Take `CC1(C)C(=O)N(CCCN2CCOCC2)c2cc3[nH]c(-c4n[nH]c5ccccc45)nc3cc21` [Example 7, 2-(1H-indazol-3-yl)-7,7-dimethyl-5-(3-morpholin-4-yl-propyl)-5,7-dihydro-3H-imidazo[4,5-f]indol-6-one]: the half-inhibitory concentration (IC50) was 280 nM. `CC1(C)C(=O)N(CCO)c2cc3[nH]c(-c4n[nH]c5ccccc45)nc3cc21` [Example 34, 5-(2-Hydroxy-ethyl)-2-(1H-indazol-3-yl)-7,7-dimethyl-5,7-dihydro-3H-imidazo[4,5-f]indol-6-one] had a half-inhibitory concentration (IC50) of 100 to 1000 nM. Compound `CCN1C(=O)C(C)(C)c2cc3nc(-c4n[nH]c5ccccc45)[nH]c3cc21` [Example 3, 5-Ethyl-2-(1H-indazol-3-yl)-7,7-dimethyl-5,7-dihydro-3H-imidazo[4,5-f]indol-6-one] had an IC50 of 100 to 1000 nM. For `CC1(C)C(=O)N(CC(=O)N2CCOCC2)c2cc3[nH]c(-c4n[nH]c5ccccc45)nc3cc21` [Example 40, 2-(1H-Indazol-3-yl)-7,7-dimethyl-5-(2-morpholin-4-yl-2-oxo-ethyl)-5,7-dihydro-3H-imidazo[4,5-f]indol-6-one] the value was 100 to 1000 nM; for `CC1(C)C(=O)N(CC(=O)Nc2ccccc2)c2cc3[nH]c(-c4n[nH]c5ccccc45)nc3cc21` [Example 43, 2-[2-(1H-Indazol-3-yl)-7,7-dimethyl-6-oxo-6,7-dihydro-3H-imidazo[4,5-f]indol-5-yl]-N-phenyl-acetamide], 100 to 1000 nM. For `CN(C)CCCN1C(=O)C(C)(C)c2cc3nc(-c4n[nH]c5ccccc45)[nH]c3cc21` [Example 21, 5-(3-Dimethylamino-propyl)-2-(1H-indazol-3-yl)-7,7-dimethyl-5,7-dihydro-3H-imidazo[4,5-f]indol-6-one] the value was 100 to 1000 nM; for `COCCOCCN1C(=O)C(C)(C)c2cc3nc(-c4n[nH]c5ccccc45)[nH]c3cc21` [Example 17, 2-(1H-Indazol-3-yl)-5-[2-(2-methoxy-ethoxy)-ethyl]-7,7-dimethyl-5,7-dihydro-3H-imidazo[4,5-f]indol-6-one], 100 to 1000 nM; for `CC1(C)C(=O)N(CC#N)c2cc3[nH]c(-c4n[nH]c5ccccc45)nc3cc21` [Example 24, [2-(1H-Indazol-3-yl)-7,7-dimethyl-6-oxo-6,7-dihydro-3H-imidazo[4,5-f]indol-5-yl]-acetonitrile], 100 to 1000 nM. As to `CC1(C)C(=O)N(CC(=O)NCc2ccccc2)c2cc3[nH]c(-c4n[nH]c5ccccc45)nc3cc21` [Example 39, N-Benzyl-2-[2-(1H-indazol-3-yl)-7,7-dimethyl-6-oxo-6,7-dihydro-3H-imidazo[4,5-f]indol-5-yl]-acetamide], the half-maximal inhibitory concentration (IC50) lay in the range of 100 to 1000 nM. For `CCCN1C(=O)C(C)(C)c2cc3nc(-c4n[nH]c5ccccc45)[nH]c3cc21` [Example 5, 2-(1H-indazol-3-yl)-7,7-dimethyl-5-propyl-5,7-dihydro-3H-imidazo[4,5-f]indol-6-one] the value was 100 to 1000 nM; for `CC1(C)C(=O)N(CC(=O)NO)c2cc3[nH]c(-c4n[nH]c5ccccc45)nc3cc21` [Example 49, N-Hydroxy-2-[2-(1H-indazol-3-yl)-7,7-dimethyl-6-oxo-6,7-dihydro-3H-imidazo[4,5-f]indol-5-yl]-acetamide], 1000 to 10000 nM; for `CC1(C)C(=O)N(CC(O)CO)c2cc3[nH]c(-c4n[nH]c5ccccc45)nc3cc21` (stereo not drawn) [Example 35, 5-(2,3-Dihydroxy-propyl)-2-(1H-indazol-3-yl)-7,7-dimethyl-5,7-dihydro-3H-imidazo [4,5-f]indol-6-one], 100 to 1000 nM. Under `CC1(C)C(=O)N(Cc2ccccc2)c2cc3[nH]c(-c4n[nH]c5ccccc45)nc3cc21` [Example 26, 5-Benzyl-2-(1H-indazol-3-yl)-7,7-dimethyl-5,7-dihydro-3H-imidazo[4,5-f]indol-6-one] stands 100 to 1000 nM; under `CCOC(=O)CN1C(=O)C(C)(C)c2cc3nc(-c4n[nH]c5ccccc45)[nH]c3cc21` [Example 23, [2-(1H-Indazol-3-yl)-7,7-dimethyl-6-oxo-6,7-dihydro-3H-imidazo[4,5-f]indol-5-yl]-acetic acid ethyl ester], 100 to 1000 nM. Under `CC1(C)C(=O)N(CCCN2CCCCC2)c2cc3[nH]c(-c4n[nH]c5ccccc45)nc3cc21` [Example 19, 2-(1H-Indazol-3-yl)-7,7-dimethyl-5-(3-piperidin-1-yl-propyl)-5,7-dihydro-3H-imidazo[4,5-f]indol-6-one] stands 100 to 1000 nM.

As for `CC1(C)C(=O)N(CC(N)=O)c2cc3[nH]c(-c4n[nH]c5ccccc45)nc3cc21` [Example 37, 2-[2-(1H-Indazol-3-yl)-7,7-dimethyl-6-oxo-6,7-dihydro-3H-imidazo[4,5-f]indol-5-yl]-acetamide], the concentration for half-maximal inhibition (IC50) lay within 100 to 1000 nM. `CC1(C)C(=O)Nc2cc3[nH]c(-c4n[nH]c5ccccc45)nc3cc21` [Example 8, 2-(1H-indazol-3-yl)-7,7-dimethyl-5,7-dihydro-3H-imidazo[4,5-f]indol-6-one] yielded a half-maximal inhibitory concentration (IC50) of 100 to 1000 nM. The compound `CC1(C)C(=O)N(CC(=O)O)c2cc3[nH]c(-c4n[nH]c5ccccc45)nc3cc21` [Example 36, [2-(1H-Indazol-3-yl)-7,7-dimethyl-6-oxo-6,7-dihydro-3H-imidazo[4,5-f]indol-5-yl]-acetic acid] displayed a 50% inhibitory concentration (IC50) of 1000 to 10000 nM.

Take `CCC1C(=O)Nc2cc3nc(-c4[nH]nc5ccccc45)[nH]c3cc21` (stereo not drawn) [Example 13, 7-Ethyl-2-(1H-indazol-3-yl)-5,7-dihydro-3H-imidazo[4,5-f]indol-6-one]: the IC50 fell in the range of 100 to 1000 nM. For `CC1(C)C(=O)N(CCN)c2cc3[nH]c(-c4n[nH]c5ccccc45)nc3cc21` [Example 52, 5-(2-Amino-ethyl)-2-(1H-indazol-3-yl)-7,7-dimethyl-5,7-dihydro-3H-imidazo[4,5-f]indol-6-one] the value was 100 to 1000 nM.
